Reference: PMC13252604, “First Generation Proteolysis Targeting Chimeras (PROTACs) for the Treatment of Progeria” (Advanced Science, 2026)

System: HGADFN167 Lmna^G608G/G608G fibroblasts
Experiment: Cell cycle analysis by flow cytometry
Format: cell-based, human
Conditions: HGADFN167, 5 µM, 20 days
Method: Supporting Figure S5. Cell cycle analysis histogram. Flow cytometry analysis of DNA content showing cell cycle distribution with peaks corresponding to G0/G1 (labeled as M1) and G2/M phases, and an intermediate region representing S phase (S/G2/M are labeled as M2). Human progeroid LmnaG608G/G608G fibroblasts (HGADFN167 cells, from The Progeria Research Foundation) were incubated with 5 μM of compound 2 for 20 days and analyzed for DNA content by flow cytometry in a FACSCalibur Flow cytometer (Becton Dickinson). Images shown correspond to one representative analysis and bar graph represents mean±sem of 2 independent experiments performed in duplicate.
*p<0.05 vs HGADFN167 cells, one-way ANOVA. […]
Cells were harvested by trypsin, centrifuged and washed with PBS. Cells pellets were added with 70% (vol/vol) ice-cold ethanol. […] The mixture was then allowed to incubate for 30min at 37 °C in the dark and samples were finally analysed by FACScalibur (Becton Dickinson) flow cytometer […]
Cells were incubated for 1 h in 1% OsO4 at room temperature and then thoroughly washed with milliQ water. […] The samples were analysed and examined in the transmission electron microscope JEM 1010 at 80 […]
Total RNA of HGPS fibroblasts (HGADFN167) and UCM-18142-treated HGPS fibroblasts were extracted for RNA sequencing. The RNA concentration and integrity were assessed using the Tape Station 4150 system (Agilent). […]

## CC1(C)Oc2cc3oc(=O)ccc3cc2C[C@@H]1OC(=O)CCCCCNc1cccc2c1C(=O)N(C1CCC(=O)NC1=O)C2=O (stereo partly shown) [compound 2]
  percentage of cells undergoing replication (phases S/G2/M): increase
